# Key:
# [1] = test system: HIV-infected subjects with NAFL/NASH; set-up: species or system human; settings: in vivo
# Description: Participants at MGH also underwent a euglycemic hyperinsulinemic clamp procedure to assess insulin sensitivity. After a 14-hour overnight fast, a low-dose (insulin 20 mU/m^2/min) clamp for 2 hours was followed by a high-dose (insulin 80 mU/m^2/min) clamp for 2 hours as previously described (Braun L R, et al. Effects of Pitavastatin on Insulin Sensitivity and Liver Fat: A Randomized Clinical Trial. J Clin Endocrinol Metab 2018; 103:4176-86). Insulin stimulated glucose disposal (M) were calculated during the last 20 minutes of low-dose and high-dose clamp using the DeFronzo method (DeFronzo R A, Tobin J D, Andres R. Am J Physiol 1979; 237:E214-23) as the primary indices of hepatic and whole-body insulin sensitivity, respectively.
# [2] = test system: HIV-infected subjects with NAFL/NASH; settings: in vivo
# [3] = test system: HIV-infected subjects with NAFL/NASH; set-up: species or system human; settings: in vivo; remark: listed apart in the source
# Description: The study consisted of a 12-month, double-blind treatment phase during which participants were randomized in a 1:1 ratio receive to tesamorelin 2 mg daily or identical placebo, followed by a 6-month open label phase during which all participants receive tesamorelin. The pre-specified primary analysis, comparing changes over twelve months in tesamorelin vs. placebo treatment, is reported here. Randomization was stratified by site (NIH and MGH) and vitamin E use, defined as consistent use of ≥400 international units daily. The randomization list was prepared by the study statistician using a permuted block algorithm within each stratum with randomly varying block sizes. […] IGF-1 Z-scores were monitored throughout the study by an independent endocrinologist at MGH otherwise unaffiliated with the study. […]
# Laboratory analyses were conducted using standard methodologies. Clinical labs were measured at the NIH Clinical Laboratory and, for MGH, at LabCorp and Quest. IGF-1 was measured centrally at Quest Laboratories. C-reactive protein was measured using electrochemiluminescense (Meso Scale Discovery, Rockville, MD), and adiponectin was measured using ELISA (R&D Systems, Minneapolis, MN).
# Per the pre-specified analysis plan, change in HFF was assessed by random intercept mixed effects modeling using restricted maximum likelihood to assess the effect estimate for the time×randomization interaction. […]
# [4] = test system: patients with HIV-associated NAFLD; settings: Ajmera et al., Hepatology 2019; cited from earlier work
# [5] = test system: patients with primary NAFLD; settings: cited from earlier work
# [6] = test system: NASH in the general population; settings: cited from earlier work
compound,measurement,setting,value
"CC/C=C/CC(=O)N[C@@H](Cc1ccc(O)cc1)C(=O)N[C@@H](C)C(=O)N[C@@H](CC(=O)O)C(=O)N[C@@H](C)C(=O)N[C@H](C(=O)N[C@@H](Cc1ccccc1)C(=O)N[C@H](C(=O)N[C@@H](CC(N)=O)C(=O)N[C@@H](CO)C(=O)N[C@@H](Cc1ccc(O)cc1)C(=O)N[C@@H](CCCNC(=N)N)C(=O)N[C@@H](CCCCN)C(=O)N[C@H](C(=O)N[C@@H](CC(C)C)C(=O)NCC(=O)N[C@@H](CCC(N)=O)C(=O)N[C@@H](CC(C)C)C(=O)N[C@@H](CO)C(=O)N[C@@H](C)C(=O)N[C@@H](CCCNC(=N)N)C(=O)N[C@@H](CCCCN)C(=O)N[C@@H](CC(C)C)C(=O)N[C@@H](CC(C)C)C(=O)N[C@@H](CCC(N)=O)C(=O)N[C@@H](CC(=O)O)C(=O)N[C@H](C(=O)N[C@@H](CCSC)C(=O)N[C@@H](CO)C(=O)N[C@@H](CCCNC(=N)N)C(=O)N[C@@H](CCC(N)=O)C(=O)N[C@@H](CCC(N)=O)C(=O)NCC(=O)N[C@@H](CCC(=O)O)C(=O)N[C@@H](CO)C(=O)N[C@@H](CC(N)=O)C(=O)N[C@@H](CCC(N)=O)C(=O)N[C@@H](CCC(=O)O)C(=O)N[C@@H](CCCNC(=N)N)C(=O)NCC(=O)N[C@@H](C)C(=O)N[C@@H](CCCNC(=N)N)C(=O)N[C@@H](C)C(=O)N[C@@H](CCCNC(=N)N)C(=O)N[C@@H](CC(C)C)C(N)=O)[C@@H](C)CC)C(C)C)[C@@H](C)O)[C@@H](C)CC [Tesamorelin, trans-3-hexenoyl-GHRH(1-44)-NH2]","treatment effect for high-dose M (insulin stimulated glucose uptake, high-dose clamp)",[1],−0.9
same,"treatment effect for low-dose M (glucose infusion rate, low-dose clamp)",[1],0.0 mg/kg/min
same,Any adverse event,[2],29
same,Arthralgia,[2],3
same,Hyperglycemia,[2],12
same,Injection site bruising,[2],11
same,Injection site erythema,[2],3
same,Injection site stinging,[2],4
same,Myalgia,[2],2
same,Other adverse events,[2],25
same,Other infection,[2],7
same,Other injection site complaints,[2],10
same,Paresthesia,[2],2
same,URI,[2],5
same,discontinuations for hyperglycemia,[2],two
same,relation of serious adverse events to study drug,[2],None were judged as related to study drug
same,fasting glucose,[3],did not significantly affect
same,hemoglobin A1c,[3],did not significantly affect
CCCCCCCCCCCCCCCCCCCC(=O)N[C@H]1CC[C@@]2(C)[C@@H](C1)C[C@@H](O)[C@@H]1[C@@H]2C[C@H](O)[C@]2(C)[C@@H]([C@H](C)CCC(=O)O)CC[C@@H]12 [aramchol],effect in patients with HIV-associated NAFLD,[4],no significant effect
same,hepatic-fat content,[5],reduce
Vitamin E,histological features of NASH,[6],improve
